Measured values: patent US12649730B2 (MITOIMMUNE THERAPEUTICS INC., priority 2021, dated 2026)
Entries after “also recorded” stand apart in the source; their conditions may differ.

Legend:
Type in all cases: physicochemical
[1] = Water sorption and desorption study, DVS cycle; conditions: 25° C.
Method: Using SMS DVS Advantage 1, 10 mg sample was placed in a mesh stainless steel basket. The overall test cycle comprises scanning two times (sorption and desorption) at 10% RH intervals in a 40 to 90% range (60 to 360 minutes for each humidity level) at a constant temperature (25° C.). Using SMS DVS Advantage 1, 10 mg of Crystalline Form A was placed in a mesh stainless steel basket. The overall test cycle comprises scanning two times (sorption and desorption) at 10% RH intervals in a 40 to 90% range (60 to 360 minutes for each humidity level) at a constant temperature (25° C.). Approximately 0.7% weight increase and absorption and loss relative to sorption level indicates a non-hygroscopic sample. FIG. 38 is an isotherm curve for Crystalline Form A (weight change % v. RH %), and a kinetic curve of weight change % v. time and relative humidity %.

[2] = Stability testing of 5 crystalline forms over 8 weeks at harsh conditions (40° C., 75% relative humidity)
Method: Stability testing was carried out over 8 weeks at harsh conditions (40° C., 75%, relative humidity) on the 5 crystalline forms obtained in Example 3.

[3] = Pressurization test for Crystalline Form A; conditions: 3 minutes each at 2, 3 and 4 MPa
Method: 100 mg of Crystalline Form A was placed in a die cavity, then made into tablets by pressing for 3 minutes each at pressures of 2, 3 and 4 MPa using an upper punch.

[4] = Grinding test for Crystalline Form A
Method: 30 mg Crystalline Form A was manually ground for 5 minutes in a mortar and pestle. […] 30 mg of Crystalline Form A and […] of EtOH were placed in a mortar and pestle, and manually ground for 5 minutes. […] 30 mg of Crystalline Form A and […] of H2O were placed in a mortar and pestle, and manually ground for 5 minutes.

[5] = 40° C./75% RH, 1 week, listed as Crystalline Form XII
[6] = 40° C./75% RH, 2 weeks, listed as Crystalline Form XII
[7] = 40° C./75% RH, 8 weeks, listed as Crystalline Form XII
[8] = Initial, listed as Crystalline Form XII

| Compound | Assay ([2]; Initial) [%] | Assay ([2]; 40° C./75% RH, 1 week) [%] | Purity ([2]; 40° C./75% RH, 1 week) [%] | XRPD Patterns ([2]; 40° C./75% RH, 1 week) | Assay ([2]; 40° C./75% RH, 2 weeks) [%] | Purity ([2]; 40° C./75% RH, 2 weeks) [%] | XRPD Patterns ([2]; 40° C./75% RH, 2 weeks) | Assay ([2]; 40° C./75% RH, 4 weeks) [%] | Purity ([2]; 40° C./75% RH, 4 weeks) [%] | XRPD Patterns ([2]; 40° C./75% RH, 4 weeks) | Assay ([2]; 40° C./75% RH, 8 weeks) [%] | Purity ([2]; 40° C./75% RH, 8 weeks) [%] | XRPD Patterns ([2]; 40° C./75% RH, 8 weeks) | Purity ([2]; Initial) [%] | XRPD Patterns ([2]; Initial) | further results |
| --- | --- | --- | --- | --- | --- | --- | --- | --- | --- | --- | --- | --- | --- | --- | --- | --- |
| O=S1(=O)CCN(Cc2cc(NC3CCOCC3)c3[nH]c(-c4ccccc4)cc3c2)CC1 [Crystalline Form A, 5-[(1,1-dioxido-4-thiomorpholinyl)methyl]-2-phenyl-N-(tetrahydro-2H-pyran-4-yl)-1H-indol-7-amine] | 100.00 | – | – | – | – | – | – | – | – | – | – | – | – | – | – | Hygroscopicity ([1]; DVS, 40 to 90% RH): non-hygroscopic; Weight increase (water sorption) ([1]; DVS, 40 to 90% RH): Approximately 0.7%; XRPD analysis after DVS ([1]; after DVS cycle): no change in crystalline form; Stability judged among the 5 crystalline forms ([2]; 40° C., 75% relative humidity, 8 weeks): most stable crystalline form; Assay [2, 5]: 101.17%; Purity [2, 5]: 99.19%; XRPD Patterns [2, 5]: Pattern A; Assay [2, 6]: 102.12%; Purity [2, 6]: 98.69%; XRPD Patterns [2, 6]: Pattern A; Assay [2, 7]: 102.17%; Purity [2, 7]: 99.88%; XRPD Patterns [2, 7]: Pattern A; Purity [2, 8]: 98.85%; XRPD Patterns [2, 8]: Pattern A; XRPD analysis after pressing into tablets and grinding [3]: no changes; XRPD analysis after wet grinding in EtOH ([4]; manually ground 5 minutes in EtOH): no change; XRPD analysis after wet grinding in H2O ([4]; manually ground 5 minutes in H2O): no change; XRPD analysis after dry grinding ([4]; manually ground 5 minutes, mortar and pestle): no change |
| O=S1(=O)CCN(Cc2cc(NC3CCOCC3)c3[nH]c(-c4ccccc4)cc3c2)CC1 [Crystalline Form IV, 5-[(1,1-dioxido-4-thiomorpholinyl)methyl]-2-phenyl-N-(tetrahydro-2H-pyran-4-yl)-1H-indol-7-amine] | 100.00 | 101.81 | 99.73 | Pattern A | 105.36 | 99.88 | Pattern A | 99.58 | 99.87 | Pattern A | 104.25 | 99.86 | converted into Crystalline Form XII; also recorded: Pattern A | 99.87 | Pattern IV | – |
| O=S1(=O)CCN(Cc2cc(NC3CCOCC3)c3[nH]c(-c4ccccc4)cc3c2)CC1 [Crystalline Form V, 5-[(1,1-dioxido-4-thiomorpholinyl)methyl]-2-phenyl-N-(tetrahydro-2H-pyran-4-yl)-1H-indol-7-amine] | 100.00 | 103.86 | 99.60 | Pattern A | 103.99 | 99.21 | Pattern A | 98.50 | 99.16 | Pattern A | 104.75 | 99.36 | converted into Crystalline Form XII; also recorded: Pattern A | 99.37 | Pattern V | – |
| O=S1(=O)CCN(Cc2cc(NC3CCOCC3)c3[nH]c(-c4ccccc4)cc3c2)CC1 [Crystalline Form VIII, 5-[(1,1-dioxido-4-thiomorpholinyl)methyl]-2-phenyl-N-(tetrahydro-2H-pyran-4-yl)-1H-indol-7-amine] | 100.00 | 106.67 | 99.95 | Pattern A | 102.74 | 99.91 | Pattern A | 105.56 | 99.83 | Pattern A | 107.08 | 100.00 | converted into Crystalline Form XII; also recorded: Pattern A | 99.94 | Pattern VIII | – |
| O=S1(=O)CCN(Cc2cc(NC3CCOCC3)c3[nH]c(-c4ccccc4)cc3c2)CC1 [Crystalline Form XI, 5-[(1,1-dioxido-4-thiomorpholinyl)methyl]-2-phenyl-N-(tetrahydro-2H-pyran-4-yl)-1H-indol-7-amine] | 100.00 | 95.79 | 99.70 | – | 105.59 | 99.36 | – | 103.58 | 99.56 | Pattern A | 104.04 | 99.58 | – | 99.55 | Pattern XI | – |
